US12678419B2, “Compounds” (Sitryx Therapeutics Limited, priority 2020, dated 2026)
Where “and” joins values, the source holds several entries; their conditions need not be identical. Equal entries are not always repeated. Structures can show the parent of a compound that is named as a salt.

Legend:
mouse hepatocytes = experiment: Hepatocyte stability assay, mouse; assay type: in vitro ADME; conditions: 10 μM compound
Description: (§1) Defrosted cryo-preserved hepatocytes (viability >70%) were used to determine the metabolic stability of a compound via calculation of intrinsic clearance (Clint; a measure of the removal of a compound from the liver in the absence of blood flow and cell binding). Clearance data are particularly important for in vitro work as they can be used in combination with in vivo data to predict the half-life and oral bioavailability of a drug.
(§2) The metabolic stability in hepatocytes assay involves a time-dependent reaction using both positive and negative controls. The cells were pre-incubated at 37° C. and spiked with test compound (and positive control); samples were taken at pre-determined time intervals were analysed to monitor the change in concentration of the initial drug compound over 60 minutes. A buffer incubation reaction (with no hepatocytes present) acted as a negative control and two cocktail solutions, containing compounds with known high and low clearance values (verapamil/7-hydroxycoumarin and propranolol/diltiazem), acted as positive controls. • 1. The assay was run with a cell concentration of 0.5×10^6 cells/mL in Leibovitz buffer. • 2. All compounds and controls were run in duplicate. • 3. Compound concentration was 10 μM. • 4. All compounds and controls were incubated with both cells and buffer to show turnover was due to hepatic metabolism. • 5. All wells on the incubation plate had 326.7 μL of either cells or buffer added. • 6. Prior to assay, cell and buffer-only incubation plates were preincubated for 10 mins at 37° C. • 7. The assay was initiated by adding compounds, 3.3 μL of 1 mM in 10% DMSO-90% Buffer; final DMSO concentration was 0.1%. • 8. Samples were taken at regular timepoints (0, 5, 10, 20, 40, 60 min) until 60 mins. • 9. Sample volume was 40 μL and was added to 160 μL of crash solvent (acetonitrile with internal standard) and stored on ice. • 10. At the end of the assay, the crash plates were centrifuged at 3500 rpm for 20 mins at 4° C. • 11. 80 μL of clear supernatant was removed and mixed with 80 μL of deionised water before being analysed by LC-MS/MS.
(§3) Raw LC-MS/MS data was exported to, and analysed in, Microsoft Excel for determination of intrinsic clearance. The percentage remaining of a compound was monitored using the peak area of the initial concentration as 100%. Intrinsic clearance and half-life values were calculated using a graph of the natural log of percentage remaining versus the time of reaction in minutes. Half-life (min) and intrinsic clearance (Clint in μL min^−1 10^−6 cells) values were calculated using the gradient of the graph (the elimination rate constant, k) and Equations 1 and 2.

human hepatocytes = experiment: Hepatocyte stability assay, human; assay type: in vitro ADME; conditions: 10 μM compound
Description: as §1, §2, §3

[1] = Hepatocyte stability assay, human; assay type: in vitro ADME; conditions: human, cryopreserved hepatocytes, 10 μM compound, read-out: T½
Description: as §1, §2, §3

[2] = tested on: NRF2 (nuclear factor erythroid 2-related factor 2); experiment: NRF2 +/-GSH activation assay (DiscoverX PathHunter NRF2 translocation kit, U2OS cells); assay type: cell-based; conditions: for Emax (%) +GSH / Emax (%) −GSH: normalised to dimethyl fumarate high control
[3] = tested on: IL-1β cytokine output from THP-1s; experiment: THP-1 AlphaLISA IL-1β cytokine assay; assay type: cell-based; conditions: LPS then nigericin, Table 1
Protocol: (§4) The cytokine inhibition profiles of compounds of formula (I) were determined in a differentiated THP-1 cell assay. All assays were performed in RPMI-1640 growth medium (Gibco), supplemented with 10% fetal bovine serum (FBS; Gibco), 1% penicillin-streptomycin and 1% sodium pyruvate unless specified otherwise. The IL-1β and IL-6 cytokine inhibition assays were each run in a background of differentiated THP-1 cells as described below. All reagents described were from Sigma-Aldrich unless specified otherwise. Compounds were prepared as 10 mM DMSO stocks.
(§5) THP-1 cells were expanded as a suspension up to 80% confluence in appropriate growth medium. Cells were harvested, suspended, and treated with an appropriate concentration of phorbol 12-myristate 13-acetate (PMA) over a 72 hr period (37° C./5% CO2).
(§6) Following 72 hrs of THP-1 cell incubation, cellular medium was removed and replaced with fresh growth media containing 1% of FBS. Working concentrations of compounds were prepared separately in 10% FBS treated growth medium and pre-incubated with the cells for 30 minutes (37° C./5% CO2). Following the 30 minute compound pre-incubation, THP-1s were treated with an appropriate concentration of LPS and the THP-1s were subsequently incubated for a 24 hr period (37° C./5% CO2). An appropriate final concentration of Nigericin was then dispensed into the THP-1 plates and incubated for 1 hour (37° C./5% CO2) before THP-1 supernatants were harvested and collected in separate polypropylene 96-well holding plates.
(§7) Reagents from each of the IL-1β and IL-6 commercial kits (Perkin Elmer) were prepared and run according to the manufacturer's instructions. Subsequently, fluorescence signal detection in a microplate reader was measured (EnVision® Multilabel Reader, Perkin Elmer).
(§8) Percentage inhibition was calculated per cytokine by normalising the sample data to the high and low controls used within each plate (+/− LPS respectively). Percentage inhibition was then plotted against compound concentration and the 50% inhibitory concentration (IC50) was determined from the resultant concentration-response curve.

[4] = tested on: IL-6 cytokine output from THP-1s; experiment: THP-1 AlphaLISA IL-6 cytokine assay; assay type: cell-based; conditions: LPS then nigericin, Table 1
Protocol: as §4, §5, §6, §7, §8

[5] = Homo sapiens, THP-1, differentiated THP-1 cells

SMILES: C=C(CC(=O)OC1CCc2cc(Cl)c(Cl)cc21)C(=O)OCC(=O)O (single isomer, unassigned; enantiomer 1) [Example 5, 2-((4-((5,6-dichloro-2,3-dihydro-1H-inden-1-yl)oxy)-2-methylene-4-oxobutanoyl)oxy)acetic acid (Enantiomer 1)]
- Clint (μL min^−1 10^−6 cells) (mouse hepatocytes): 431 μL min^−1 10^−6 cells
- T½ (mouse hepatocytes): 3 min
- Clint (μL min^−1 10^−6 cells) (human hepatocytes): 11 μL min^−1 10^−6 cells
- half-life at 10 μM [1]: 140 min
- EC50 ([2]; +GSH): 19.5 µM
- Emax (%) +GSH ([2]; +GSH): 246%
- EC50 ([2]; −GSH): 10.8 µM
- Emax (%) −GSH ([2]; −GSH): 280%
- IC50 [3, 5]: 12.3 µM

SMILES: C=C(CC(=O)OC1CCc2ccc(OC(F)(F)F)cc21)C(=O)OCC(=O)O (single isomer, unassigned; enantiomer 2) [Example 30, 2-((2-methylene-4-oxo-4-((6-(trifluoromethoxy)-2,3-dihydro-1H-inden-1-yl)oxy)butanoyl)oxy)acetic acid (Enantiomer 2)]
- Clint (μL min^−1 10^−6 cells) (mouse hepatocytes): 393 μL min^−1 10^−6 cells
- T½ (mouse hepatocytes): 4 min
- Clint (μL min^−1 10^−6 cells) (human hepatocytes): 19 μL min^−1 10^−6 cells
- T½ (human hepatocytes): 81 min
- EC50 ([2]; +GSH): 28.7 µM
- Emax (%) +GSH ([2]; +GSH): 182%
- EC50 ([2]; −GSH): 21.6 µM
- Emax (%) −GSH ([2]; −GSH): 225%
- IC50 ([4]; differentiated THP-1 cells): 20.6 µM
- IC50 ([3]; differentiated THP-1 cells): 7.9 µM

SMILES: C=C(CC(=O)OC1CCCc2c(Cl)cc(Cl)cc21)C(=O)OCC(=O)O (single isomer, unassigned; enantiomer 2) [Example 25, 2-((4-((5,7-dichloro-1,2,3,4-tetrahydronaphthalen-1-yl)oxy)-2-methylene-4-oxobutanoyl)oxy)acetic acid (Enantiomer 2)]
- Clint (μL min^−1 10^−6 cells) (mouse hepatocytes): >460 μL min^−1 10^−6 cells
- T½ (mouse hepatocytes): <3 min
- Clint (μL min^−1 10^−6 cells) (human hepatocytes): 29 μL min^−1 10^−6 cells
- T½ (human hepatocytes): 58 min
- EC50 ([2]; +GSH): 10.6 µM
- Emax (%) +GSH ([2]; +GSH): 147%
- EC50 ([2]; −GSH): 6 µM
- Emax (%) −GSH ([2]; −GSH): 205%
- IC50 ([4]; differentiated THP-1 cells): 6.2 µM
- IC50 ([3]; differentiated THP-1 cells): 4.8 µM

SMILES: C=C(CC(=O)OC1CCc2c(Cl)cc(F)cc21)C(=O)OCC(=O)O (single isomer, unassigned; enantiomer 2) [Example 20, 2-((4-((4-chloro-6-fluoro-2,3-dihydro-1H-inden-1-yl)oxy)-2-methylene-4-oxobutanoyl)oxy)acetic acid (Enantiomer 2)]
- Clint (μL min^−1 10^−6 cells) (mouse hepatocytes): >460 μL min^−1 10^−6 cells
- T½ (mouse hepatocytes): <3 min
- Clint (μL min^−1 10^−6 cells) (human hepatocytes): 11 μL min^−1 10^−6 cells
- T½ (human hepatocytes): 125 min
- EC50 ([2]; +GSH): 31.8 µM
- Emax (%) +GSH ([2]; +GSH): 155%
- EC50 ([2]; −GSH): 12.9 µM
- Emax (%) −GSH ([2]; −GSH): 234%
- IC50 [4, 5]: 3.9 µM
- IC50 ([3]; differentiated THP-1 cells): 1.4 µM

SMILES: C=C(CC(=O)OC1CCc2c(Cl)cc(Cl)cc21)C(=O)OCC(=O)O (single isomer, unassigned; enantiomer 1) [Example 2, 2-((4-((4,6-dichloro-2,3-dihydro-1H-inden-1-yl)oxy)-2-methylene-4-oxobutanoyl)oxy)acetic acid (Enantiomer 1)]
- Clint (μL min^−1 10^−6 cells) (mouse hepatocytes): 51 μL min^−1 10^−6 cells
- T½ (mouse hepatocytes): 37 min
- Clint (μL min^−1 10^−6 cells) (human hepatocytes): 13 μL min^−1 10^−6 cells
- half-life at 10 μM [1]: 116 min
- EC50 ([2]; +GSH): 11.4 µM
- Emax (%) +GSH ([2]; +GSH): 166%
- EC50 ([2]; −GSH): 9 µM
- Emax (%) −GSH ([2]; −GSH): 196%
- IC50 [4, 5]: 4.3 µM
- IC50 [3, 5]: 4 µM

SMILES: COC(=O)/C=C/C(=O)OC [dimethyl fumarate, reference compound]
- EC50 ([2]; +GSH): > 100 µM
- Emax (%) +GSH ([2]; +GSH): 19%
- EC50 ([2]; −GSH): 6 µM
- Emax (%) −GSH ([2]; −GSH): 100%
- IC50 [4, 5]: 9.3 µM
- IC50 [3, 5]: 14.4 µM

SMILES: C=C(CC(=O)OC1CCc2c(Br)cc(F)cc21)C(=O)OCC(=O)O (single isomer, unassigned; enantiomer 1) [Example 15, 2-((4-((4-bromo-6-fluoro-2,3-dihydro-1H-inden-1-yl)oxy)-2-methylene-4-oxobutanoyl)oxy)acetic acid (Enantiomer 1)]
- Clint (μL min^−1 10^−6 cells) (mouse hepatocytes): 51 μL min^−1 10^−6 cells
- T½ (mouse hepatocytes): 24 min
- Clint (μL min^−1 10^−6 cells) (human hepatocytes): 9 μL min^−1 10^−6 cells
- half-life at 10 μM [1]: 165 min
- IC50 [3, 5]: 2.4 µM

SMILES: C=C(CC(=O)OC1CCc2c(Cl)cc(Cl)cc21)C(=O)OCC(=O)O (single isomer, unassigned; enantiomer 2) [Example 3, 2-((4-((4,6-dichloro-2,3-dihydro-1H-inden-1-yl)oxy)-2-methylene-4-oxobutanoyl)oxy)acetic acid (Enantiomer 2)]
- Clint (μL min^−1 10^−6 cells) (mouse hepatocytes): >460 μL min^−1 10^−6 cells
- T½ (mouse hepatocytes): <3 min
- Clint (μL min^−1 10^−6 cells) (human hepatocytes): 16 μL min^−1 10^−6 cells
- T½ (human hepatocytes): 93 min
- EC50 ([2]; +GSH): 15.8 µM
- Emax (%) +GSH ([2]; +GSH): 211%
- EC50 ([2]; −GSH): 9.8 µM
- Emax (%) −GSH ([2]; −GSH): 229%
- IC50 ([4]; differentiated THP-1 cells): 3.6 µM
- IC50 ([3]; differentiated THP-1 cells): 5.6 µM

SMILES: C=C(CC(=O)OC1CCc2cc(C(F)(F)F)ccc21)C(=O)OCC(=O)O (single isomer, unassigned; enantiomer 2) [Example 29, 2-((2-methylene-4-oxo-4-((5-(trifluoromethyl)-2,3-dihydro-1H-inden-1-yl)oxy)butanoyl)oxy)acetic acid (Enantiomer 2)]
- Clint (μL min^−1 10^−6 cells) (mouse hepatocytes): 92 μL min^−1 10^−6 cells
- T½ (mouse hepatocytes): 17 min
- Clint (μL min^−1 10^−6 cells) (human hepatocytes): 10 μL min^−1 10^−6 cells
- T½ (human hepatocytes): 152 min
- EC50 ([2]; +GSH): 18.7 µM and 25.9 µM
- Emax (%) +GSH ([2]; +GSH): 141% and 175%
- EC50 ([2]; −GSH): 5.9 µM and 11.5 µM
- Emax (%) −GSH ([2]; −GSH): 147% and 211%
- IC50 ([4]; differentiated THP-1 cells): 5.8 µM
- IC50 ([3]; differentiated THP-1 cells): 11.4 µM
